According to patent US10172868B2, “Substituted quinazolines for inhibiting kinase activity” (NeuPharma, Inc., priority 2013, dated 2019):

Columns and labels:
A431 cells = assay: cells; details: Homo sapiens, A-431, 72 h, read-out: IC50 in A431 cells
EGFR (ErbB1) = EGFR (ErbB1) (Homo sapiens (Human), UniProt P00533); assay: Z'-LYTE kinase inhibition assay, EGFR; type: biochemical; details: read-out: % inhibition against EGFR (Compound at 0.041 μM)
Protocol: Inhibitory activities of compounds against BTK, EGFR and EGFR mutants (EGFR L858R, EGFR T790M, EGFR L858R/T790M), FGFR1, FGFR2, JAK2, JAK3 and KDR were measured by Invitrogen using Z'-LYTE® Method as briefly described in the following. Test Compounds are screened in 1% DMSO (final) in the well. For 10 point titrations, 3-fold serial dilutions are conducted from the starting concentration. All ATP Solutions are diluted to a 4× working concentration in Kinase Buffer (50 mM HEPES pH 7.5, 0.01% BRIJ-35, 10 mM MgCl2, 1 mM EGTA). Peptide/Kinase Mixtures are diluted to a 2× working concentration in the appropriate Kinase Buffers as described below. (i) Peptide/Kinase Mixtures for Measurement of EGFR (ErbB1): The 2×EGFR (ErbB1)/[…] mixture is prepared in 50 mM HEPES pH 7.5, 0.01% BRIJ-35, 10 mM MgCl2. 4 mM MnCl2, 1 mM EGTA, 2 mM DTT. The final 10 μL Kinase Reaction consists of 1.1-5.25 ng EGFR (ErbB1) and 2 μM […] in 50 mM HEPES pH 7.5, 0.01% BRIJ-35, 10 mM MgCl2, 2 mM MnCl2. 1 mM EGTA, 1 mM DTT. After the 1 hour Kinase Reaction incubation, 5 μL of a 1:64 dilution of Development Reagent B is added. Reaction starts by 30-second shaking of mixture consisting of 2.5 μL 4× test compound, […] 2× kinase reaction mixture and 2.5 μL 4×ATP Solution on Bar-coded Corning, low volume NBS, black 384-well plate (Corning Cat. #3676). Then the mixture is incubated for 60-minute at room temperature for the kinase reaction, followed by addition of 5 μL of a 1:1024 dilution of development reagent A and 30-second plate shake. The mixture is then incubated for another 60-minute at room temperature for development reaction. Finally fluorescence is read by plate reader. To determine IC50 of a compound against EGFR, EGFR mutant and other kinases, a series of concentrations of the compound were tested for the inhibition.

EGFR (ErbB1) T790M L858R = EGFR (ErbB1) T790M L858R (Homo sapiens (Human), UniProt P00533, L858R/T790M); assay: Z'-LYTE kinase inhibition assay, EGFR L858R/T790M; type: biochemical; details: for inhibition at 0.0137 µM: read-out: % inhibition against EGFR L858R/T790M (Compound at 0.0137 μM); for IC50: read-out: IC50 against EGFR L858R/T790M
EGFR (ErbB1) T790M L858R, sequence (P00533 25-1210 T790M/L858R): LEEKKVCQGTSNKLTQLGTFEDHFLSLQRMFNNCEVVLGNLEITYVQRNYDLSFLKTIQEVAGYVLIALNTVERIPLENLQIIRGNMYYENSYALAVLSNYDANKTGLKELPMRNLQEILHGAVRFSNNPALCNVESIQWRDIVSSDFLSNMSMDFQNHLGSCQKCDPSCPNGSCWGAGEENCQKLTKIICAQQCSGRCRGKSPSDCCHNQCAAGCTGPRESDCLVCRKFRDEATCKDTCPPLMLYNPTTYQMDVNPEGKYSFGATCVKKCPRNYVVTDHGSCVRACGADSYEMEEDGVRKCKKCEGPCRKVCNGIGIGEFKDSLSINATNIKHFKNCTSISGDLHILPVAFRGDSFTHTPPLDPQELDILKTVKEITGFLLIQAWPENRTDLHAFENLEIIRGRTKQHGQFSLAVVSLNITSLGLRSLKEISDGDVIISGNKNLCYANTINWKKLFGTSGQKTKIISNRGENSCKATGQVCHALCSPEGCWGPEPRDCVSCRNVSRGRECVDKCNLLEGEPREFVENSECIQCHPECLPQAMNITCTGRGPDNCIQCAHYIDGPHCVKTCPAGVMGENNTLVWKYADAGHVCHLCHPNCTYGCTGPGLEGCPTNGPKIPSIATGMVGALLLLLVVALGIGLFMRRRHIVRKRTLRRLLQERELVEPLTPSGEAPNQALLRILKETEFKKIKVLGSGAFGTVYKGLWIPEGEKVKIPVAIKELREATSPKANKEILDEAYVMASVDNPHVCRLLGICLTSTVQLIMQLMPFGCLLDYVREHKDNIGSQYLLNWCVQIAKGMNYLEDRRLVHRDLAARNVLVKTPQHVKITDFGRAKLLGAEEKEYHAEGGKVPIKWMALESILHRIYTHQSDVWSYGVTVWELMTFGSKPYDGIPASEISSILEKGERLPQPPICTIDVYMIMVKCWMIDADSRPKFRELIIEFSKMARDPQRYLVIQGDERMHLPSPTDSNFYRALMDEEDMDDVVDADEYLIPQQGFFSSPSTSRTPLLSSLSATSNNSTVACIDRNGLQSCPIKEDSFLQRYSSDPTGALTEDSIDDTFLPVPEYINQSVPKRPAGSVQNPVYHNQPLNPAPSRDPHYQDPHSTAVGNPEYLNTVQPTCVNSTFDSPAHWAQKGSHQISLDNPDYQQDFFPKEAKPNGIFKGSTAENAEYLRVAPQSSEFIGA
Protocol: Inhibitory activities of compounds against BTK, EGFR and EGFR mutants (EGFR L858R, EGFR T790M, EGFR L858R/T790M), FGFR1, FGFR2, JAK2, JAK3 and KDR were measured by Invitrogen using Z'-LYTE® Method as briefly described in the following. Test Compounds are screened in 1% DMSO (final) in the well. For 10 point titrations, 3-fold serial dilutions are conducted from the starting concentration. All ATP Solutions are diluted to a 4× working concentration in Kinase Buffer (50 mM HEPES pH 7.5, 0.01% BRIJ-35, 10 mM MgCl2, 1 mM EGTA). Peptide/Kinase Mixtures are diluted to a 2× working concentration in the appropriate Kinase Buffers as described below. (iv) Peptide/Kinase Mixtures for Measurement of EGFR (ErbB1) T790M L858R: The 2×EGFR (ErbB1) […] mixture is prepared in 50 mM HEPES pH 6.5, 0.01% BRIJ-35, 10 mM MgCl2, 1 mM EGTA, 0.02% NaN3. […] After the 1 hour Kinase Reaction incubation, 5 μL of a 1:64 dilution of Development Reagent B is added. Reaction starts by 30-second shaking of mixture consisting of 2.5 μL 4× test compound, […] 2× kinase reaction mixture and 2.5 μL 4×ATP Solution on Bar-coded Corning, low volume NBS, black 384-well plate (Corning Cat. #3676). Then the mixture is incubated for 60-minute at room temperature for the kinase reaction, followed by addition of 5 μL of a 1:1024 dilution of development reagent A and 30-second plate shake. The mixture is then incubated for another 60-minute at room temperature for development reaction. Finally fluorescence is read by plate reader. To determine IC50 of a compound against EGFR, EGFR mutant and other kinases, a series of concentrations of the compound were tested for the inhibition.

H1975 cells = assay: Inhibition of cancer cell growth, MTT assay, H1975; details: Homo sapiens, NCI-H1975, 72 h, read-out: IC50 in H1975 cells

EGFR (ErbB1), sequence (P00533 25-1210): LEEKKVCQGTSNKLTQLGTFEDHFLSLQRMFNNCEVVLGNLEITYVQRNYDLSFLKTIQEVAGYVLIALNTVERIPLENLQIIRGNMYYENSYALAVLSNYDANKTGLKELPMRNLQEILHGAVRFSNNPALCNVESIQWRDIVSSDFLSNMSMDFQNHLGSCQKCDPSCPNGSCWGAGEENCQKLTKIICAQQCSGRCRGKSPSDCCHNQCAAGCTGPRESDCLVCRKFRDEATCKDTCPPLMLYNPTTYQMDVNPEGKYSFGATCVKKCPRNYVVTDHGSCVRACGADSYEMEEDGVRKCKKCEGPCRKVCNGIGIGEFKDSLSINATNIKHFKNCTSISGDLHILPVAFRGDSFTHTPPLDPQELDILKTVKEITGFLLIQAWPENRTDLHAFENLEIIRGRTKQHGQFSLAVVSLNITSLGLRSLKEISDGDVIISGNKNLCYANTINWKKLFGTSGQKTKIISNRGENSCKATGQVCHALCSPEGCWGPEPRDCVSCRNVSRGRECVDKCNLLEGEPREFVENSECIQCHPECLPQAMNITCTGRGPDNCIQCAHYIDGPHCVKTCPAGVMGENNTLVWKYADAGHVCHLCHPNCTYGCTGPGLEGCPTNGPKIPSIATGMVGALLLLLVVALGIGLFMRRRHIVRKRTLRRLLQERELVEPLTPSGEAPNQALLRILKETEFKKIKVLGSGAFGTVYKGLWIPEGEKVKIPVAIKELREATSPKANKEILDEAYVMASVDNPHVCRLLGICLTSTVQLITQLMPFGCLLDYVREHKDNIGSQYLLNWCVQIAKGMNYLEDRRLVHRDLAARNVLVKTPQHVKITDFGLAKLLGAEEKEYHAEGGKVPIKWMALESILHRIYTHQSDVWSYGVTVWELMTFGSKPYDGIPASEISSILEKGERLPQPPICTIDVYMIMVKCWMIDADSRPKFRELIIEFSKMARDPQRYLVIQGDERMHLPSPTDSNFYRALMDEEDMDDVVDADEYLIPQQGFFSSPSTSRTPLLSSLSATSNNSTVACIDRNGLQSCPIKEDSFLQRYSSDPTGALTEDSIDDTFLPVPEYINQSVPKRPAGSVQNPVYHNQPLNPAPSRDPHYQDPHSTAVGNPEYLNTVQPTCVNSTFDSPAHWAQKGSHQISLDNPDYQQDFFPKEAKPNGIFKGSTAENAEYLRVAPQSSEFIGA

SMILES	IC50 (A431 cells) [µM]	inhibition at 0.041 µM (EGFR (ErbB1)) [%]	inhibition at 0.0137 µM (EGFR (ErbB1) T790M L858R) [%]	IC50 (EGFR (ErbB1) T790M L858R) [µM]	IC50 (H1975 cells) [µM]
CC(=O)N1CCN(c2ccc(Nc3ncc4cccc(-c5cccc(NC(=O)/C=C/CN(C)C)c5Cl)c4n3)cc2)CC1 [Example C060, (E)-N-(3-(2-((4-(4-acetylpiperazin-1-yl)phenyl)amino)quinazolin-8-yl)-2-chlorophenyl)-4-(dimethylamino)but-2-enamide]	> 0.5	< 50	> 50		0.1 to 0.5
C=CC(=O)Nc1cccc(-c2cccc3cnc(Nc4ccc(N5CCN(C(C)=O)CC5)cc4)nc23)c1F [Example C049, N-(3-(2-((4-(4-acetylpiperazin-1-yl)phenyl)amino)quinazolin-8-yl)-2-fluorophenyl)acrylamide]	> 0.5	> 50	> 50	< 0.1	0.1 to 0.5
C=CC(=O)Nc1cccc(-c2cccc3cnc(Nc4ccc(N5CCOC5=O)cc4)nc23)c1 [Example C091, N-(3-(2-((4-(2-oxooxazolidin-3-yl)phenyl)amino)quinazolin-8-yl)phenyl)acrylamide]	> 0.5	< 50	< 50		0.1 to 0.5
C=CC(=O)Nc1cccc(-c2cccc3cnc(Nc4ccc(N5CCN(C)CC5)c(Cl)c4)nc23)c1 [Example C072, N-(3-(2-((3-chloro-4-(4-methylpiperazin-1-yl)phenyl)amino)quinazolin-8-yl)phenyl)acrylamide]	0.1 to 0.5	< 50	> 50	< 0.1	0.1 to 0.5
C=CC(=O)Nc1cccc(-c2cccc3cnc(Nc4ccc(N5CCN(CC(N)=O)CC5)cc4F)nc23)c1 [Example C154, N-(3-(2-((4-(4-(2-amino-2-oxoethyl)piperazin-1-yl)-2-fluorophenyl)amino)quinazolin-8-yl)phenyl)acrylamide]		< 50	< 50		0.1 to 0.5
C=CC(=O)Nc1cccc(-c2cccc3cnc(Nc4ccc(N5CCN(C(=O)CO)CC5)cc4)nc23)c1 [Example C082, N-(3-(2-((4-(4-(2-hydroxyacetyl)piperazin-1-yl)phenyl)amino)quinazolin-8-yl)phenyl)acrylamide]		< 50	> 50		0.1 to 0.5
C=CC(=O)N1CCN(c2cccc3cnc(Nc4ccc(N5CCN(C)CC5)cc4)nc23)CC1 [Example C070, 1-(4-(2-((4-(4-methylpiperazin-1-yl)phenyl)amino)quinazolin-8-yl)piperazin-1-yl)prop-2-en-1-one]		< 50	< 50		> 0.5
C=CC(=O)Nc1ccc(C#N)c(-c2cccc3cnc(Nc4ccc(N5CCN(C)CC5)cc4)nc23)c1 [Example C100, N-(4-cyano-3-(2-((4-(4-methylpiperazin-1-yl)phenyl)amino)quinazolin-8-yl)phenyl)acrylamide]		< 50	< 50		> 0.5
CN(C)C/C=C/C(=O)Nc1cccc(-c2cccc3cnc(Nc4ccc(N5CCN(C)CC5)cc4)nc23)c1F [Example C062, (E)-4-(dimethylamino)-N-(2-fluoro-3-(2-((4-(4-methylpiperazin-1-yl)phenyl)amino)quinazolin-8-yl)phenyl)but-2-enamide]		> 50	> 50		0.1 to 0.5

Results, then the molecule that gave them:

IC50 (A431 cells) [µM]	inhibition at 0.041 µM (EGFR (ErbB1)) [%]	inhibition at 0.0137 µM (EGFR (ErbB1) T790M L858R) [%]	IC50 (EGFR (ErbB1) T790M L858R) [µM]	IC50 (H1975 cells) [µM]	SMILES
< 0.1	> 50	> 50	< 0.1	< 0.1	C=CC(=O)Nc1cccc(-c2cccc3cnc(Nc4ccc(N[C@@H]5CCN(C)C5)cc4)nc23)c1 [Example C129, (R)-N-(3-(2-((4-((1-methylpyrrolidin-3-yl)amino)phenyl)amino)quinazolin-8-yl)phenyl)acrylamide]
	< 50	> 50		0.1 to 0.5	C=CC(=O)Nc1cccc(-c2cccc3cnc(Nc4ccc(N5CCN(C)C(C(=O)O)C5)cc4)nc23)c1 (stereo not drawn) [Example C090, 4-(4-((8-(3-acrylamidophenyl)quinazolin-2-yl)amino)phenyl)-1-methylpiperazine-2-carboxylic acid]
	< 50	> 50		< 0.1	C=CC(=O)Nc1cccc(-c2cccc3cnc(Nc4ccc(N5CCN(CC(C)(C)O)CC5)c(F)c4)nc23)c1 [Example C143, N-(3-(2-((3-fluoro-4-(4-(2-hydroxy-2-methylpropyl)piperazin-1-yl)phenyl)amino)quinazolin-8-yl)phenyl)acrylamide]
	> 50	> 50		< 0.1	C=CC(=O)Nc1cccc(-c2cccc3cnc(Nc4ccc(OC5CCN(CCO)CC5)cc4F)nc23)c1 [Example C144, N-(3-(2-((2-fluoro-4-((1-(2-hydroxyethyl)piperidin-4-yl)oxy)phenyl)amino)quinazolin-8-yl)phenyl)acrylamide]
	< 50	< 50		> 0.5	C=CC(=O)Nc1cccc(-c2cccc3cnc(Nc4ccc(N5CCN(C(=O)OC)CC5)cc4)nc23)c1 [Example C076, methyl 4-(4-((8-(3-acrylamidophenyl)quinazolin-2-yl)amino)phenyl)piperazine-1-carboxylate]
	< 50	< 50		< 0.1	C=CC(=O)Nc1cccc(-c2cccc3cnc(Nc4ccc(N5CCC(O)C5)cc4)nc23)c1 (stereo not drawn) [Example C098, N-(3-(2-((4-(3-hydroxypyrrolidin-1-yl)phenyl)amino)quinazolin-8-yl)phenyl)acrylamide]
	< 50	< 50		0.1 to 0.5	C=CC(=O)Nc1cccc(-c2cccc3cnc(Nc4ccc(N5CCOCC5=O)cc4)nc23)c1 [Example C095, N-(3-(2-((4-(3-oxomorpholino)phenyl)amino)quinazolin-8-yl)phenyl)acrylamide]
	< 50	< 50		0.1 to 0.5	C=CC(=O)Nc1cc(-c2cccc3cnc(Nc4ccc(N5CCN(C)CC5)cc4)nc23)n[nH]1 [Example C132, N-(3-(2-((4-(4-methylpiperazin-1-yl)phenyl)amino)quinazolin-8-yl)-1H-pyrazol-5-yl)acrylamide]
	< 50	< 50		> 0.5	C=CC(=O)N1CCC=C(c2cccc3cnc(Nc4ccc(N5CCN(C)CC5)cc4)nc23)C1 [Example C071, 1-(3-(2-((4-(4-methylpiperazin-1-yl)phenyl)amino)quinazolin-8-yl)-5,6-dihydropyridin-1(2H)-yl)prop-2-en-1-one]
	> 50	> 50	< 0.1	< 0.1	C=CC(=O)Nc1ccc(F)c(-c2cccc3cnc(Nc4ccc(N5CCN(C)CC5)cc4)nc23)c1 [Example C067, N-(4-fluoro-3-(2-((4-(4-methylpiperazin-1-yl)phenyl)amino)quinazolin-8-yl)phenyl)acrylamide]
